Assay results from ChEMBL document CHEMBL1909046, “DrugMatrix in vitro pharmacology data”.

What was measured:
Calcitonin receptor = molecular target: T1, Calcitonin receptor (Homo sapiens, UniProt P30988); type: cell membranes, Membrane; conditions: t47d; further: in other assays of this panel Not Active means under 50% inhibition at 10 µM
T1 sequence (P30988 whole entry): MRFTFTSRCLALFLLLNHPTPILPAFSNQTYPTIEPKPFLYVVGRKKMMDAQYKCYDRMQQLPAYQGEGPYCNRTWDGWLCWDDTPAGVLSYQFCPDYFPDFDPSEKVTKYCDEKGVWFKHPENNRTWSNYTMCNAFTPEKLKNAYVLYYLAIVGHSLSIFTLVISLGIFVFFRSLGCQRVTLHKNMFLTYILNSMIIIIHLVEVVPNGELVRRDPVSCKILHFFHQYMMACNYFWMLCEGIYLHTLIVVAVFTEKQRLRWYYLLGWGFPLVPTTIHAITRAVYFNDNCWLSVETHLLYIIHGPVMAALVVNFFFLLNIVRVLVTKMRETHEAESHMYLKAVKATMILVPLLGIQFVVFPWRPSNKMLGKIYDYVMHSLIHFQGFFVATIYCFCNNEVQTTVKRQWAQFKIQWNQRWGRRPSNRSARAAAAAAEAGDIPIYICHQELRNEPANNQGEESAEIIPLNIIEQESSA

Neutrophil elastase = molecular target: T2, Neutrophil elastase (Homo sapiens, UniProt P08246); type: tissue-based;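 further: inhibition of neutrophil elastase enzyme activity, measured with a p-nitroanilide-linked peptide substrate; in other assays of this panel Not Active means under 50% inhibition at 10 µM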
T2 sequence (P08246 whole entry): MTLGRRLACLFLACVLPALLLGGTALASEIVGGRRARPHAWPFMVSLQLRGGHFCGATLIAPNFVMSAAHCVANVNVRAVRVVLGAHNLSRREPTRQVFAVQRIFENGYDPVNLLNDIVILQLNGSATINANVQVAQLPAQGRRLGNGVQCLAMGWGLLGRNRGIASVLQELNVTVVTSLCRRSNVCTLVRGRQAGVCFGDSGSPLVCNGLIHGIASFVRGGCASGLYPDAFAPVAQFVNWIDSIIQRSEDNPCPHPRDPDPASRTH

[1] = molecular target: C-C chemokine receptor type 2 (Homo sapiens, UniProt P41597); type: cell membranes, CHO-K1, Membrane; conditions: cho-k1; further: in other assays of this panel Not Active means under 50% inhibition at 10 µM
[2] = molecular target: T3, Type-2 angiotensin II receptor (Homo sapiens, UniProt P50052); type: cell-based; conditions: cho-k1; further: in other assays of this panel Not Active means under 50% inhibition at 10 µM
T3 sequence (P50052 whole entry): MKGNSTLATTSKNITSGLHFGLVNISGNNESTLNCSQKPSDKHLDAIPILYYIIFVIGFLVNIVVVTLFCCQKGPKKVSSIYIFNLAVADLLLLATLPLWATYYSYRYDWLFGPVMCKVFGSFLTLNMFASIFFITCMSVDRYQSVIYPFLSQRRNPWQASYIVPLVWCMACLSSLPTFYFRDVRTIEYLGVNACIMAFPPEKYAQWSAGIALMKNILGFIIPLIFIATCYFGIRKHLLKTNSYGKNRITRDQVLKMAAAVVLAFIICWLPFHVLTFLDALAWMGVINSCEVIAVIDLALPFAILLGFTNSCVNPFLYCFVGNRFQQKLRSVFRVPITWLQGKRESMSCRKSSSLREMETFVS

D(1A) dopamine receptor = D(1A) dopamine receptor (Homo sapiens, UniProt P21728); test: DRUGMATRIX: Dopamine D1 radioligand binding (ligand: [3H] SCH-23390); type: cell membranes, CHO, Membrane; conditions: Not Active = under 50% inhibition at 10 µM
[3] = DRUGMATRIX: Serotonin (5-Hydroxytryptamine) 5-HT3 radioligand binding (ligand: [3H] GR-65630); type: cell membranes, Membrane; conditions: hek293; Not Active = under 50% inhibition at 10 µM
[4] = DRUGMATRIX: Glutamate, Kainate radioligand binding (ligand: [3H] Kainic acid); type: cell membranes, Rattus norvegicus, Wistar, Brain, Membrane; conditions: Not Active = under 50% inhibition at 10 µM

Sequence of D(1A) dopamine receptor (P21728 whole entry): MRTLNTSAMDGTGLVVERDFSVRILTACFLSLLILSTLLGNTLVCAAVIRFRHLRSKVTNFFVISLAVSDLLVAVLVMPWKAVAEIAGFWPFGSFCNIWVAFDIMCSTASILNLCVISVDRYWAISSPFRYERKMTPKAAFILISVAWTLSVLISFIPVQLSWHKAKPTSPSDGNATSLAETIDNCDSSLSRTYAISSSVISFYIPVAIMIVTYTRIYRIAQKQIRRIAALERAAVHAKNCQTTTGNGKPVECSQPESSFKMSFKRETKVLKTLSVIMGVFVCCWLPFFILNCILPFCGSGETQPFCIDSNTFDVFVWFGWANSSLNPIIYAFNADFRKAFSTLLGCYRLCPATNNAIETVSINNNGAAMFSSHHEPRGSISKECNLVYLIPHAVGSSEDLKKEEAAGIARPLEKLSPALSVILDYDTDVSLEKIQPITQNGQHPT
Sequence of C-C chemokine receptor type 2 (P41597 whole entry): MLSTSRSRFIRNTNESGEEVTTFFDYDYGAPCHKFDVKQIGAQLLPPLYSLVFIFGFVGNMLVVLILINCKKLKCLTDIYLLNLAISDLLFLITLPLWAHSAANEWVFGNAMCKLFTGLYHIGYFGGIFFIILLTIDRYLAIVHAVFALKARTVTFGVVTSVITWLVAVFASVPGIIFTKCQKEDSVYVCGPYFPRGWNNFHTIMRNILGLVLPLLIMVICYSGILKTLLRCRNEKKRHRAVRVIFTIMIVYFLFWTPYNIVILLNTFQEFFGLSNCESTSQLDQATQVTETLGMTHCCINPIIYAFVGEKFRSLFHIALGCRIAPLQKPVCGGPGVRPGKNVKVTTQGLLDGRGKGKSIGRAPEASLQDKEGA

| Compound | IC50 (Calcitonin receptor) | IC50 (Neutrophil elastase) | IC50 [1] | IC50 [2] | IC50 (D(1A) dopamine receptor; cho) | IC50 [3] | Ki [3] | IC50 [4] | Ki [4] | IC50 (D(1A) dopamine receptor; read-out: IC50) | Ki (D(1A) dopamine receptor; read-out: Ki) |
| --- | --- | --- | --- | --- | --- | --- | --- | --- | --- | --- | --- |
| COc1cc2c3cc1Oc1cc(ccc1O)C[C@@H]1c4c(cc(OC)c(O)c4Oc4ccc(cc4)C[C@@H]3N(C)CC2)CC[N+]1(C)C.[Cl-] | Not Active | Not Active | Not Active | Not Active | Not Active | Not Active | Not Active | Not Active | Not Active | – | – |
| CC(C)C(Br)C(=O)NC(N)=O (stereo not given) [BROMISOVALUM] | Not Active | Not Active | Not Active | Not Active | Not Active | Not Active | Not Active | Not Active | Not Active | – | – |
| CCCC1O[C@@H]2C[C@H]3[C@@H]4CCC5=CC(=O)C=C[C@]5(C)[C@H]4[C@@H](O)C[C@]3(C)[C@]2(C(=O)CO)O1 (stereo not given in full) [BUDESONIDE] | Not Active | Not Active | Not Active | Not Active | Not Active | Not Active | Not Active | Not Active | Not Active | – | – |
| O=C(O)CCCc1ccc(N(CCCl)CCCl)cc1 [CHLORAMBUCIL] | Not Active | Not Active | Not Active | Not Active | Not Active | Not Active | Not Active | Not Active | Not Active | – | – |
| CC(C)(C)NCC(O)c1cc(Cl)c(N)c(Cl)c1 (stereo not given) [CLENBUTEROL] | Not Active | Not Active | Not Active | Not Active | Not Active | Not Active | Not Active | Not Active | Not Active | – | – |
| CC1CC(OC(=O)C(O)c2ccccc2)CC(C)(C)C1 (stereo not given) [CYCLANDELATE] | Not Active | Not Active | Not Active | Not Active | Not Active | Not Active | Not Active | Not Active | Not Active | – | – |
| CNCCCN1c2ccccc2CCc2ccccc21 [DESIPRAMINE] | Not Active | Not Active | Not Active | Not Active | Not Active | Not Active | Not Active | Not Active | Not Active | – | – |
| O=c1oc2ccccc2c(O)c1Cc1c(O)c2ccccc2oc1=O [DICUMAROL] | Not Active | Not Active | Not Active | Not Active | Not Active | Not Active | Not Active | Not Active | Not Active | – | – |
| CC(=O)O[C@@]12CO[C@@H]1C[C@H](O)[C@@]1(C)C(=O)[C@H](O)C3=C(C)[C@@H](OC(=O)[C@H](O)[C@@H](NC(=O)OC(C)(C)C)c4ccccc4)C[C@@](O)([C@@H](OC(=O)c4ccccc4)[C@H]21)C3(C)C.O.O.O [DOCETAXEL] | Not Active | Not Active | Not Active | Not Active | Not Active | Not Active | Not Active | Not Active | Not Active | – | – |
| COc1cc2nc(N3CCN(C(=O)C4COc5ccccc5O4)CC3)nc(N)c2cc1OC (stereo not given) [DOXAZOSIN] | Not Active | Not Active | Not Active | Not Active | Not Active | Not Active | Not Active | Not Active | Not Active | – | – |
| C[C@H]1c2cccc(O)c2C(=O)C2=C(O)[C@]3(O)C(=O)C(C(N)=O)=C(O)[C@@H](N(C)C)[C@@H]3[C@@H](O)[C@@H]21.O [DOXYCYCLINE] | Not Active | Not Active | Not Active | Not Active | Not Active | Not Active | Not Active | Not Active | Not Active | – | – |
| C[C@]12CC[C@@H]3c4ccc(O)cc4CC[C@H]3[C@@H]1CCC2=O [ESTRONE] | Not Active | Not Active | Not Active | Not Active | Not Active | Not Active | Not Active | Not Active | Not Active | – | – |
| CC(C)C(=O)Nc1ccc([N+](=O)[O-])c(C(F)(F)F)c1 [FLUTAMIDE] | Not Active | Not Active | Not Active | Not Active | Not Active | Not Active | Not Active | Not Active | Not Active | – | – |
| CC1(C)O[C@@H]2C[C@H]3[C@@H]4CCC5=CC(=O)CC[C@]5(C)[C@@]4(F)[C@@H](O)C[C@]3(C)[C@]2(C(=O)CCl)O1 [HALCINONIDE] | Not Active | Not Active | Not Active | Not Active | Not Active | Not Active | Not Active | Not Active | Not Active | – | – |
| CC1Cc2ccccc2N1NC(=O)c1ccc(Cl)c(S(N)(=O)=O)c1 (stereo not given) [INDAPAMIDE] | Not Active | Not Active | Not Active | Not Active | Not Active | Not Active | Not Active | Not Active | Not Active | – | – |
| CCC(C)n1ncn(-c2ccc(N3CCN(c4ccc(OCC5COC(Cn6cncn6)(c6ccc(Cl)cc6Cl)O5)cc4)CC3)cc2)c1=O (stereo not given) [ITRACONAZOLE] | Not Active | Not Active | Not Active | Not Active | Not Active | Not Active | Not Active | Not Active | Not Active | – | – |
| CCCCN1CCCC[C@H]1C(=O)Nc1c(C)cccc1C [LEVOBUPIVACAINE] | Not Active | Not Active | Not Active | Not Active | Not Active | Not Active | Not Active | Not Active | Not Active | – | – |
| Sc1ncnc2nc[nH]c12 [MERCAPTOPURINE ANHYDROUS] | Not Active | Not Active | Not Active | Not Active | Not Active | Not Active | Not Active | Not Active | Not Active | – | – |
| C[C@](N)(Cc1ccc(O)c(O)c1)C(=O)O [METHYLDOPA] | Not Active | Not Active | Not Active | Not Active | Not Active | Not Active | Not Active | Not Active | Not Active | – | – |
| C[C@]12CCC(=O)C=C1CC[C@@H]1[C@@H]2CC[C@@]2(C)[C@H]1CC[C@]2(C)O [METHYLTESTOSTERONE] | Not Active | Not Active | Not Active | Not Active | Not Active | Not Active | Not Active | Not Active | Not Active | – | – |
| CN(C)CCCN1c2ccccc2Sc2ccccc21 [PROMAZINE] | Not Active | Not Active | Not Active | Not Active | – | Not Active | Not Active | Not Active | Not Active | 2.46 µM | 1.23 µM |
